Results from patent publication US7279498B2, “Substituted aryl amides as IP antagonists” (Roche Palo Alto LLC, priority 2003, dated 2007).

Key:
[1] = molecular target: T1, rat prostanoid IP receptor (Rattus norvegicus, UniProt P43253); assay: IP receptor activity assay: cyclic AMP accumulation (cAMP Flashplate) in CHO cells; assay type: cell-based; conditions: CHO cells expressing the rat prostanoid IP receptor
T1 construct: expressed in transfected cells; host or cells: Chinese Hamster Ovary cells (kept under geneticin)
T1 sequence (P43253 whole entry): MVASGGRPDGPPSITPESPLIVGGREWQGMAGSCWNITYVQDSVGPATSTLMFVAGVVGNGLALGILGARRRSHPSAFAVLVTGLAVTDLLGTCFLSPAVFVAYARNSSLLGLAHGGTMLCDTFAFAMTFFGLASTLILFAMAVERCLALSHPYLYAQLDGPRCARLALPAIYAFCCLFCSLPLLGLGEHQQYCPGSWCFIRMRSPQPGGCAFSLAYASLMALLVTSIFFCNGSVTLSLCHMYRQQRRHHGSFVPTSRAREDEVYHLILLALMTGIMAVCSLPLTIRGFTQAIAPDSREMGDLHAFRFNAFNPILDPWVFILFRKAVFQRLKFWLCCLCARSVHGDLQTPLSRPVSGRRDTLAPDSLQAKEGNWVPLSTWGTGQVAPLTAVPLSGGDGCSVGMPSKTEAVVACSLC
Method: The IP receptor agonist potency of compounds of this invention in vitro was determined by measuring the agonist-mediated cyclic AMP accumulation in an assay utilizing Chinese Hamster Ovary cells expressing the rat prostanoid IP receptor. Cyclic AMP levels were determined using a commercially available Adenylate Cyclase cAMP Flashplate Assay.
Chinese Hamster Ovary cells expressing the rat prostanoid IP receptor were maintained in Ham's Mixture with 10% fetal bovine serum, […] geneticin in 5% carbon dioxide ([…]). Cells were harvested at approximately 90% confluency using Dulbecco's Phosphate-Buffered saline containing 2 mM EDTA, and washed once at 1000×g and resuspended in Wash Buffer. A sample was aliquoted for protein determination. The cell suspension was centrifuged at 1000×g and adjusted to 110–140 E+3 cells/50 μl in the “Stimulation and Detection Buffer” from the assay kit.
The test compounds or vehicle were incubated with 50 μl cells (110–140 E+3 cells) for 5 minutes at room temperature. After the incubation, 100 μl lysis/tracer solution was added to the wells and the radioactivity counted on a Packard Topcount microplate scintillation counter after overnight incubation. The amount of radioactive cAMP bound to the antibody is inversely proportional to the concentration of added non-radioactive cAMP. […]

[2] = molecular target: T2, hERG potassium channel (Homo sapiens, UniProt Q12809); assay: hERG Potassium Channel Pharmacology Screening (whole-cell patch-clamp, CHO-K1 cells); assay type: cell-based; conditions: CHO-K1 cells expressing recombinant human hERG channel, read-out: hERG outward current inhibition percentage
T2 construct: expressed in transfected cells; host or cells: CHO-K1 cells
T2 sequence (Q12809 whole entry): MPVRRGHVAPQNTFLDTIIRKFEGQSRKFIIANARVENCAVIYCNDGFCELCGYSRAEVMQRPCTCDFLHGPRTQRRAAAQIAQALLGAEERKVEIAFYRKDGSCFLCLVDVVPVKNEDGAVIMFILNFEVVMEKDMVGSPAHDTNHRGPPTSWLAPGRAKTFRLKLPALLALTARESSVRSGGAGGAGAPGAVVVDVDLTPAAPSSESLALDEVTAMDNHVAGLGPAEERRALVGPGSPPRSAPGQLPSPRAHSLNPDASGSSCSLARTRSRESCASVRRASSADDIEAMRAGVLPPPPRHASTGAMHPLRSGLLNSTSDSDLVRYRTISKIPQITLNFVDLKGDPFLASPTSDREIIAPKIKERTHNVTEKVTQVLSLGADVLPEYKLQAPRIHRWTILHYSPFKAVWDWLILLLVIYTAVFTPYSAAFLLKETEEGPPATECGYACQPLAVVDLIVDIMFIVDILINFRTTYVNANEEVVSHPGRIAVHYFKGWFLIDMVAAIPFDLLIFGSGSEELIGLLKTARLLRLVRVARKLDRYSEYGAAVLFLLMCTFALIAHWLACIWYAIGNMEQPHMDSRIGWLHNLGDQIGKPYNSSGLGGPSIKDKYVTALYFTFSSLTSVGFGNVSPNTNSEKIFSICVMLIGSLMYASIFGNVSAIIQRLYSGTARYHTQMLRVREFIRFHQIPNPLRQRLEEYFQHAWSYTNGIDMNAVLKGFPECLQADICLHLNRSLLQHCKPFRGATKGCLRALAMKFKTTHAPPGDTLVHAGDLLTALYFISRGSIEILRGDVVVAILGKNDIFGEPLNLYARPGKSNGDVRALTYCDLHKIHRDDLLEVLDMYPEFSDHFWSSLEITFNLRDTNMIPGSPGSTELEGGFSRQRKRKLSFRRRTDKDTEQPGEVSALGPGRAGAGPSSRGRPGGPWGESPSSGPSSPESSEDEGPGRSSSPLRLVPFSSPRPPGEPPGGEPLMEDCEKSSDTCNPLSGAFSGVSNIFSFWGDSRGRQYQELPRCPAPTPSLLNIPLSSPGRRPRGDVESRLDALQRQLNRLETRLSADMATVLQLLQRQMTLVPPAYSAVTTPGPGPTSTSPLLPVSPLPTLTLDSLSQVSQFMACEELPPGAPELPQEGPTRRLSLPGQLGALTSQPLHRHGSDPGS
Method: The effects of the subject compounds on recombinant hERG potassium channels expressed in CHO-K1 cells was determined according to the procedure reported by Hamill et al., 1981, Pflügers Arch., 391, 85–100
The following solutions were used to isolate potassium currents in cultured cell lines: extracellular (in mM), NaCl (150), KCl (4), HEPES (10), CaCl2 (1.2), MgCl2 (1), adjusted to pH 7.4 with NaOH; intracellular (in mM), KCl (140), HEPES (10), EGTA (5), MgCl2 (6), ATP-Na2 (5), adjusted to pH 7.2 with KOH.
Whole-cell patch-clamp methods were used to record potassium currents from CHO.K1 cells expressing the human hERG channel. Each cell was held at a negative holding potential of −80 mV. […] Peak tail current amplitudes at the different test potentials were measured to obtain the current-voltage relationship.
A second protocol was used to investigate the effects of compounds on hERG currents. […] Drugs were applied once a stable baseline has been recorded for 5 min. […]
Voltage-dependent potassium currents were recorded from single cells at room temperature (20–22° C.) using the whole-cell configuration of the patch-clamp technique. […]
The peak amplitude of outward currents are measured using Clampfit software to find peak amplitude. […]
Statistics were calculated using Microcal Origin and Prism software, and results were reported as mean+/−standard error of the mean. […]

Ki [1]: ~7.59 nM
Structure (SMILES): COc1ccc(C(=O)NCc2ccc(NC3=NCCN3)cc2)cc1 [compound 96, N-[4-(4,5-Dihydro-1H-imidazol-2-yl-amino)-benzyl]-4-methoxy-benzamide]
inhibition at 1 µM ([2]; pH 7.4, at 1 uM): 4.3 ± 4.4%
inhibition at 10 µM ([2]; pH 7.4, at 10 uM): 10.8 ± 7.2%
